Consider five compounds from article PMC9404985, “Development of Dicationic Bisguanidine-Arylfuran Derivatives as Potent Agents against Gram-Negative Bacteria” (Antibiotics, 2022).

Data set [1] can be described thus: Cytotoxicity assay (PrestoBlue) MCF-7. The class given is cell-based. Particulars: human, MCF-7 cells (breast cancer cell line), 24 h incubation. The procedure: (§1) The cytotoxicity levels of all compounds were evaluated against human Michigan Cancer Foundation-7 (MCF-7) and Hepatoma G2 cell line (HepG2) cell lines. MCF-7 is an extensively characterized breast cancer cell line isolated in 1970 [41], while HepG2 cells were derived from a hepatoma in 1975 [42]. Both cell lines grow robustly during in vitro culture and have been widely used for cytotoxicity testing. Cells of hepatic origin, such as HepG2, are of particular relevance for toxicity studies as many drugs accumulate in the liver during metabolic conversion. Cells were grown in Dulbecco’s Modified Eagle Medium supplemented with 10% fetal calf serum and kept in exponential growth, as previously reported. Before the assay, cells were reseeded into 96-well microtiter plates at a density allowing continued exponential growth and let to settle for 24 h. The compounds were added from a stock solution in DMSO, for a final concentration of 0.3% v/v of the solvent in the culture medium. After 24 h of incubation in presence of the compound, cell viability was assayed using PrestoBlue Cell Viability Reagent (resazurin-based solution, ThermoFisher, Waltham, MA, USA) according to the manufacturer’s instructions. […] Each assay contained a DMSO control at the equivalent starting concentration, positive control (uninhibited cell growth) and negative control (cell medium only). Survival was expressed as percentage of the solvent-only control. […] The Selectivity Index (SI) for each compound and bacterial strain was calculated as the ratio between the mean of the EC50 values for the two human cell lines and the EC50 for the bacterial strain in question ((EC50 MCF-7 + EC50 HepG2)/2)/EC50 bacterial strain).

Data set [2] in a line: Cytotoxicity assay (PrestoBlue) HepG2. In kind it is cell-based. Particulars: human, HepG2 cells (hepatoma cell line), 24 h incubation. The procedure:
as §1

In data set [3] the test system is B. subtilis (NBRC/ATCC #111470). As to the kind of experiment: Antibacterial resazurin assay, laboratory strain. As to conditions: for EC50 / EC90: Bacillus subtilis, ATCC111470, 18 h; for EC50: read-out: Bsu EC50; for EC90: read-out: Bsu EC90; for Selectivity index B. subtilis: mean of MCF-7 and HepG2 EC50 over bacterial EC50, laboratory strain. (Resazurin is reduced to fluorescent resorufin, in cell work by metabolically active cells.)

In data set [4] the test system is E. coli MG1655 (CGSC #6300). Put plainly: Antibacterial resazurin assay, laboratory strain. As to conditions: for EC50 / EC90: Escherichia coli, MG1655, 18 h; for EC50: read-out: Eco EC50; for EC90: read-out: Eco EC90; for Selectivity index E. coli: mean of MCF-7 and HepG2 EC50 over bacterial EC50, laboratory strain.
Data set [5] deals with P. putida (NBRC/ATCC #100650). Put plainly: Antibacterial resazurin assay, laboratory strain. Particulars: for EC50 / EC90: Pseudomonas putida, ATCC100650, 18 h; for EC50: read-out: Ppu EC50, laboratory strain, 18 h, 37 °C, AlamarBlue; for EC90: read-out: Ppu EC90; for Selectivity index P. putida: mean of MCF-7 and HepG2 EC50 over bacterial EC50, laboratory strain.
For data set [6], the system named is P. carotovorum (NBRC/ATCC #3380). As to the kind of experiment: Antibacterial resazurin assay, laboratory strain. Particulars: for EC50 / EC90: Pectobacterium carotovorum, ATCC3380, 18 h; for EC50: read-out: Pcar EC50, laboratory strain, 18 h, 37 °C, AlamarBlue; for EC90: read-out: Pcar EC90; for Selectivity index P. carotovorum: mean of MCF-7 and HepG2 EC50 over bacterial EC50, laboratory strain.

Data set [7] deals with P. caledonica (NBRC/ATCC #102488). As to the kind of experiment: Antibacterial resazurin assay, laboratory strain. As to conditions: for EC50 / EC90: Paraburkholderia caledonica, ATCC102488, 18 h; for EC50: read-out: Pcal EC50; for EC90: read-out: Pcal EC90; for Selectivity index P. caledonica: mean of MCF-7 and HepG2 EC50 over bacterial EC50, laboratory strain.

As usually defined, the EC50 is the concentration that produces a half-maximal response. The EC90 is the concentration needed for an effect of 90%. `N=C(N)Nc1ccc(-c2ccc(-c3ccc(NC(=N)N)cc3C(F)(F)F)o2)c(C(F)(F)F)c1` [Compound 5, 2,5-Bis(4-guanidino-2-trifluoromethylphenyl)furan]: the EC50 at 24 h in data set [1] is 23.2 µM; in data set [2], 69 µM. The concentration for a half-maximal effect (EC50) in data set [3] was more than 300 µM; in data set [4], 29.4 µM; in data set [5] it was 290 µM; in data set [6], 185 µM; in data set [7], more than 300 µM. In addition, the EC90 in data set [3] was more than 300 µM; in data set [4], 59.1 µM; in data set [5] it was 319 µM; in data set [6], 233 µM; in data set [7] it was more than 300 µM. Further, the “Selectivity index E. coli” value in data set [4] is given as 1.6. Further, the “Selectivity index P. putida” value in data set [5] was determined as 0.2. Moreover, in data set [6], the “Selectivity index P. carotovorum” value turned out to be 0.2.

With `N#Cc1cc(NC(=N)N)ccc1-c1ccc(-c2ccc(NC(=N)N)cc2C#N)o1` [Compound 7, 2,5-Bis(2-cyano-4-guanidinophenyl)furan], it took 46 µM to reach a half-maximal effect in data set [1] (EC50 at 24 h). This compound gave an EC50 at 24 h in data set [2] of 78.9 µM. In data set [3], the EC50 was 146 µM, the concentration for an effect of 90% (EC90) worked out at 562 µM and the “Selectivity index B. subtilis” value turned out to be 0.4. Further, in data set [4], the EC50 is 59.3 µM, the EC90 is 350 µM and the “Selectivity index E. coli” value is 1.1. Also, in data set [5], the EC50 worked out at 24.5 µM, the concentration for an effect of 90% (EC90) worked out at 51.5 µM and the “Selectivity index P. putida” value is given as 2.5. Further, in data set [6], the EC50 amounted to 212 µM, the 90% effect concentration (EC90) stood at 268 µM and the “Selectivity index P. carotovorum” value amounted to 0.3. Also, in data set [7], the EC50 is more than 300 µM and the EC90 is more than 300 µM.

`Cc1nc(NC(=N)N)ccc1-c1ccc(-c2ccc(NC(=N)N)nc2C)o1` [Compound 9, 2,5-Bis(6-guanidino-2-methylpyridin-3-yl)furan]: the results for the EC50 at 24 h in data set [1] and in data set [2] were more than 1000 µM and more than 100 µM, respectively. Besides, the EC50 in data set [3] was 154 µM; in data set [4], 547 µM; in data set [5] it was more than 300 µM; in data set [6], more than 300 µM; in data set [7], 84.8 µM. Besides, the EC90 in data set [3] is 246 µM; in data set [4], more than 900 µM; in data set [5], more than 300 µM; in data set [6] it was more than 300 µM; in data set [7], 213 µM. Besides, the “Selectivity index B. subtilis” value in data set [3] came to 3.6. The “Selectivity index E. coli” value in data set [4] is reported as 1.0. Moreover, the “Selectivity index P. caledonica” value in data set [7] was 6.5.

`Nc1c(Nc2ccc(-c3ccc(-c4ccc(Nc5c(N)c(=O)c5=O)cc4Cl)o3)c(Cl)c2)c(=O)c1=O` [Compound 11, 2,5-Bis(2-chloro-4-((3,4-dioxo-2-(amino)cyclobut-1-en-1-yl)amino)phenyl)furan]: the results for the EC50 at 24 h in data set [1] and in data set [2] were 508 µM and 183 µM, respectively. The EC50 is more than 300 µM in data set [3]; more than 300 µM in data set [4]; more than 300 µM in data set [5]; more than 300 µM in data set [6]; 19 µM in data set [7]. Further, the EC90 was more than 300 µM in data set [3]; more than 300 µM in data set [4]; more than 300 µM in data set [5]; more than 300 µM in data set [6]; 60.1 µM in data set [7]. Moreover, the “Selectivity index P. caledonica” value in data set [7] was 18.2.

For `Nc1c(Nc2ccc(-c3ccc(-c4ccc(Nc5c(N)c(=O)c5=O)cc4)o3)cc2)c(=O)c1=O` [Compound 12, 2,5-Bis(4-((3,4-dioxo-2-(amino)cyclobut-1-en-1-yl)amino)phenyl)furan], the EC50 at 24 h in data set [1] and in data set [2] was more than 1000 µM throughout. Further, the EC50 in data set [3], in data set [4], in data set [5], in data set [6] and in data set [7] was more than 300 µM throughout. For the same compound, the EC90 in data set [3], in data set [4], in data set [5], in data set [6] and in data set [7] was more than 300 µM in each case.
